# Measurements reported in publication PMC8284454, “In Vitro Profiling of Antitubercular Compounds by Rapid, Efficient, and Nondestructive Assays Using Autoluminescent Mycobacterium tuberculosis” (Antimicrobial Agents and Chemotherapy, 2021).
# Entries after “also recorded” stand apart in the source; their conditions may differ. Like-named read-outs stand apart in the source and are kept apart here. Marks after values point to notes of the source that are not given here. *1 amine or outer side, *2 acyl side, *3 side chain or, on linkers, in order; H or OH if unused. Where a SMILES comes first, the peptide text is derived from it. Bridges are numbered along the chain shown (N, C = ends). [ ]: non-standard residue; d: D form. The star is where a group is joined. Phe(3R-OH) = O=C([C@@H](N[*:1])[C@H](O[*:3])c1ccccc1)[*:2]; NMeTrp(4-OMe) = CN[C@@H](Cc1c[nH]c2cccc(OC)c12)C(=O)O; NMeaIle = CC[C@@H](C)[C@H](NC)C(=O)O; NMe2Val = CC(C)[C@@H](C(=O)*)N(C)C; NMeT = CN[C@H](C(=O)O)[C@@H](C)O; NMeL = CN[C@@H](CC(C)C)C(=O)O; NMeV = CN[C@H](C(=O)O)C(C)C
# Columns and labels:
# [1] = system: J774-internalized M. tuberculosis (H37Rv); assay: intracellular activity by luminescence (EC90); format: cell-based, Mycobacterium tuberculosis; conditions: for EC90: RLU; for onset of growth inhibition of internalized M. tuberculosis: early = EC90 obtainable by day 3, late = EC90 obtainable by day 5 or later
# [2] = system: macrophage-internalized M. tuberculosis; conditions: read-out: Literature reported EC90, cited from earlier work
# [3] = system: M. tuberculosis H37Rv_LuxABCDE; assay: luminescence-based MIC assay (LMICA); conditions: 90% reduction of luminescence, 7 days, 7H12 medium; SD from three independent experiments
# [4] = system: M. tuberculosis H37Rv_LuxABCDE; assay: microplate alamarBlue assay (MABA) MIC; conditions: 90% reduction of fluorescence, 7 days, 7H12 medium; SD from three independent experiments
# [5] = system: M. tuberculosis H37Rv_LuxABCDE; assay: luminescence-based MBC assay (LMBCA) / time-kill; format: cell-based, Mycobacterium tuberculosis; conditions: for MBC: Mycobacterium tuberculosis; for time and/or concentration dependence of bactericidal activity: time-kill curves up to day 21; for change of MBC values over time: over 21 days, luminescence time-kill
# [6] = system: M. tuberculosis H37Rv_LuxABCDE; assay: microbe, parasite or virus in culture; format: cell-based, Mycobacterium tuberculosis; conditions: day 7, SD from three independent experiments; for MBC: Mycobacterium tuberculosis, read-out: MBC (±SD) via CFU
# [7] = system: M. tuberculosis H37Rv_LuxABCDE; format: cell-based, Mycobacterium tuberculosis; conditions: 1:10,000-fold dilution
# [8] = system: J774 infected with M. tuberculosis strain Erdman; conditions: read-out: Literature reported EC90; cited from earlier work
# [9] = system: M. tuberculosis H37Rv_LuxABCDE; assay: postantibiotic effect by luminescence (RLU); format: cell-based, Mycobacterium tuberculosis; conditions: 1.5 log10 RLU increase, 1:10,000-fold dilution
# [10] = Mycobacterium tuberculosis, H37RV, 72 h, EC90, day 3, J774 macrophages, read-out: Intracellular activity, EC90 (±SD) Day 3
# [11] = Mycobacterium tuberculosis, H37RV, 120 h, EC90, day 5, J774 macrophages, read-out: Intracellular activity, EC90 (±SD) Day 5
# [12] = Mycobacterium tuberculosis, H37RV, 168 h, EC90, day 7, J774 macrophages, read-out: Intracellular activity, EC90 (±SD) Day 7
# [13] = 168 h, day 7, 99% reduction in RLU vs T0, SD from three independent experiments, read-out: MBC (±SD) via luminescence
# [14] = 336 h, day 14, 99% reduction in RLU vs T0, read-out: MBC (±SD) by luminescence on day 14
# [15] = 504 h, day 21, 99% reduction in RLU vs T0, read-out: MBC (±SD) by luminescence on day 21
# [16] = day 7, 99% reduction in RLU vs T0, SD from three independent experiments
SMILES,"EC90 [1, 10] [µM]","EC90 [1, 11] [µM]","EC90 [1, 12] [µM]",MIC (±SD) LMICA [3],onset of growth inhibition of internalized M. tuberculosis [1],MIC (±SD) MABA [4],"MBC [5, 13] [µM]","MBC [5, 14] [µM]","MBC [5, 15] [µM]",time and/or concentration dependence of bactericidal activity [5],EC90 ([2]; EC90) [µM],MBC [6] [µM],"Toxicity against infected J774, percent inhibition at the highest tested concentration (infected J774; day 7, 50 μM)","MBC (±SD) via luminescence [5, 16]",change of MBC values over time [5],further results
NCC[C@H](O)C(=O)N[C@@H]1C[C@H](N)[C@@H](O[C@H]2O[C@H](CN)[C@@H](O)[C@H](O)[C@H]2O)[C@H](O)[C@H]1O[C@H]1O[C@H](CO)[C@@H](O)[C@H](N)[C@H]1O [Amikacin],> 34,> 34,> 34,,,,,,,,,,,,,"inhibition at 34 µM ([1]; Mycobacterium tuberculosis, H37RV, 72 h, day 3, 34 μM, read-out: percent inhibition at the highest tested concentration, intracellular activity Day 3): 4%; inhibition at 34 µM ([1]; Mycobacterium tuberculosis, H37RV, 120 h, day 5, 34 μM, read-out: percent inhibition at the highest tested concentration, intracellular activity Day 5): 34%; inhibition at 34 µM ([1]; Mycobacterium tuberculosis, H37RV, 168 h, day 7, 34 μM, read-out: percent inhibition at the highest tested concentration, intracellular activity Day 7): 49%; EC90 ([2]; EC90, high-content imaging on day 5): > 26 µM"
COc1nc2ccc(Br)cc2cc1[C@@H](c1ccccc1)[C@@](O)(CCN(C)C)c1cccc2ccccc12 [Bedaquiline],0.89,0.29,0.22,0.028 (0.01) μM,early growth inhibition,0.021 (0.01) μM,0.13,0.11,0.12,primarily concentration dependent,0.1,0.16,,,,"Toxicity against infected J774, percent inhibition at the highest tested concentration (infected J774; day 7, 2 μM): 2 (7)* percent"
CC(C)/N=c1\cc2n(-c3ccc(Cl)cc3)c3ccccc3nc-2cc1Nc1ccc(Cl)cc1 [Clofazimine],19,6.69,3.7,,early growth inhibition,0.014 (0.02) μM,1.81,0.82,1.01,both time and concentration dependent,~2.1,> 4,50 (45)* percent,1.8 (0.19) μM,decreased,
CC[C@@H](C)[C@@H](C(=O)N[C@@H]1C(=O)N(C)[C@@H]([C@@H](C)O)C(=O)N[C@@H](C(C)C)C(=O)N(C)[C@@H](CC(C)C)C(=O)N[C@@H](C(C)C)C(=O)N(C)[C@@H](C(C)C)C(=O)N(C)[C@@H](Cc2c[nH]c3cccc(OC)c23)C(=O)N[C@@H](C(C)C)C(=O)N[C@@H]([C@H](O)c2ccccc2)C(=O)N[C@@H](C(C)C)C(=O)O[C@@H]1C)N(C)C(=O)[C@@H](NC(=O)[C@H](C(C)C)N(C)C)C(C)C [Ecumicin] (NMe2Val-V[NMeaIle]T[NMeT]V[NMeL]V[NMeV][NMeTrp(4-OMe)]V[Phe(3R-OH)]V; ester 3-C),,,,0.074 (0.002) μM,early growth inhibition,0.081 (0.02) μM,,,,mainly time dependent,,,,0.22 (0.1) μM,decreased,"PAE 1× MIC CFU/ml ([7]; 3 h exposure at 1× MIC): 0 h; PAE 10× MIC CFU/ml ([7]; 3 h exposure at 10× MIC): 10 h; PAE 100× MIC CFU/ml ([7]; 3 h exposure at 100× MIC): 80 h; Toxicity against infected J774, percent inhibition at the highest tested concentration (infected J774; day 7, 6.3 μM): 6.3 (11)* percent; EC90 ([1]; EC90, day 3, J774 macrophages, read-out: Intracellular activity, EC90 (±SD) Day 3): 0.74 µM; EC90 ([1]; EC90, day 5, J774 macrophages, read-out: Intracellular activity, EC90 (±SD) Day 5): 0.57 µM; EC90 ([1]; EC90, day 7, J774 macrophages, read-out: Intracellular activity, EC90 (±SD) Day 7): 0.28 µM; EC90 [8]: ~0.12 µM; bactericidal or bacteriostatic activity [5]: strong bactericidal activity; also recorded: classical bactericidal dose response; MBC (±SD) by luminescence on day 14 ([5]; day 14, 99% reduction in RLU vs T0): 0.20 (0.09) µM; MBC (±SD) by luminescence on day 21 ([5]; day 21, 99% reduction in RLU vs T0): 0.12 (0.04) µM; PAE 1× MIC RLU ([9]; 3 h exposure at 1× MIC): 0 h; PAE 10× MIC RLU ([9]; 3 h exposure at 10× MIC): 12 h; PAE 100× MIC RLU ([9]; 3 h exposure at 100× MIC): 96 h; MBC (±SD) via CFU [6]: 0.10 (±0.03) μM"
CC[C@@H](CO)NCCN[C@@H](CC)CO [Ethambutol],> 50,44,23.8,1.3 (0.38) μM,late growth inhibition,2.0 (0.41) μM,9.18,3.17,3.28,mainly time dependent,16.7,7.9,50 (0)* percent,9.2 (2.7) μM,decreased,"inhibition at 50 µM ([1]; Mycobacterium tuberculosis, H37RV, 72 h, day 3, 50 μM, read-out: percent inhibition at the highest tested concentration, intracellular activity Day 3): 68%"
